Test results reported in patent US20130023553A1, “PEGYLATED OPIOIDS WITH LOW POTENTIAL FOR ABUSE AND SIDE EFFECTS” (Nektar Therapeutics, priority 2010, published 2013).

Columns and labels:
[1] = Pharmacokinetics following intravenous (IV) dosing; type: in vivo, Sprague-Dawley rats; settings: male, Sprague-Dawley, rat, plasma, iv, 1 mg/kg; for Cmax: read-out: Cmax; for half-life: read-out: T1/2(2); for Vd: read-out: Vss
Source text: (§1) There were 3 rats/group. All animals were food fasted overnight. […] The predose sample was collected from the JVC.
(§2) Following the last collection point, the animals were euthanized.

[2] = biological target: T1, human kappa opioid receptor (Homo sapiens, UniProt P41145); assay: cell-based; settings: for Emax: maximal response at the highest tested concentration, read-out: % max effect, kappa opioid receptor
T1 construct: expressed in transfected cells; host or cells: CHO cells
Method: (§3) Studies were conducted in CHO cells heterologously expressing the cloned human mu, kappa or delta opioid receptors. cAMP was measured using a cAMP HiRange homogenous time-resolved fluorescence assay (HTRF Assay), that is based on a competitive immunoassay principle (Cisbio, Cat.#62AM6PEC).
(§4) Briefly, suspensions of cells expressing either the mu, kappa or delta opioid receptors were prepared in buffer containing 0.5 mM isobutyl-methyl xanthine (IBMX). […] EC50 values were calculated for each compound from a sigmoidal dose-response plot of concentrations versus maximum response. To determine if the compounds behaved as full or partial agonists in the system, the maximal response at the highest tested concentrations of compounds were compared to that produced by a known full agonist.

human mu opioid receptor [3] = biological target: T2, human mu opioid receptor (Homo sapiens, UniProt P35372); assay: cell-based; settings: for Emax: maximal response at the highest tested concentration, read-out: % max effect, mu opioid receptor; for EC50: read-out: EC50, mu opioid receptor
T2 construct: expressed in transfected cells; host or cells: CHO cells
Method: as §3, §4

[4] = biological target: T1, human kappa opioid receptor; assay: biochemical; type: binding
Method: (§5) Radioligand displacement was measured using scintillation proximity assays (SPA).
(§6) Briefly, serial dilutions of the test compounds were placed in a 96-well plate to which were added SPA beads, membrane and radioligand. The assay conditions for each opioid receptor subtype are described in Table 10 below. The plates were incubated for 8 hours-overnight at room temperature, spun at 1000 rpm to pellet the SPA beads, and radioactivity was measured using the TopCount® microplate Scintillation counter. Specific binding at each concentration of test compound was calculated by subtracting the non-specific binding measured in the presence of excess cold ligand. IC50 values were obtained by non-linear regression of specific binding versus concentration curves and Ki values were calculated using Kd values that were experimentally pre-determined for each lot of membrane preparations.

human mu opioid receptor [5] = biological target: T2, human mu opioid receptor; assay: biochemical; type: binding; settings: CHO-K1 membranes, [3H]DAMGO 6 nM; read-out: Ki, Mu opioid receptor
Method: as §5, §6

[6] = Pharmacokinetics following oral (PO) dosing; type: in vivo, Sprague-Dawley rats; settings: male, Sprague-Dawley, rat, plasma, po, 5 mg/kg; for Cmax: read-out: Cmax; for half-life: read-out: T1/2(2); for Tmax: read-out: Tmax (converted)
Source text: as §1, §2

T2 sequence (P35372 whole entry): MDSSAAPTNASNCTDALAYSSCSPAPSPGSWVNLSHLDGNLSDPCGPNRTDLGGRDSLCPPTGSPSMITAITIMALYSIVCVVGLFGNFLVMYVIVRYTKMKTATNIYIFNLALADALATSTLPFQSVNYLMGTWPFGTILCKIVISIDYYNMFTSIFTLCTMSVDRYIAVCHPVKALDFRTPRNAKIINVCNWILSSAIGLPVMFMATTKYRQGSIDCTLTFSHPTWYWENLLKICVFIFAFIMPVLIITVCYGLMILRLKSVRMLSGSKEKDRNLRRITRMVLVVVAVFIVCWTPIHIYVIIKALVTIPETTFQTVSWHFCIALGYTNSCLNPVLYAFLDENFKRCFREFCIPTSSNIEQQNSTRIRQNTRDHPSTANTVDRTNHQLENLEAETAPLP
T1 sequence (P41145 whole entry): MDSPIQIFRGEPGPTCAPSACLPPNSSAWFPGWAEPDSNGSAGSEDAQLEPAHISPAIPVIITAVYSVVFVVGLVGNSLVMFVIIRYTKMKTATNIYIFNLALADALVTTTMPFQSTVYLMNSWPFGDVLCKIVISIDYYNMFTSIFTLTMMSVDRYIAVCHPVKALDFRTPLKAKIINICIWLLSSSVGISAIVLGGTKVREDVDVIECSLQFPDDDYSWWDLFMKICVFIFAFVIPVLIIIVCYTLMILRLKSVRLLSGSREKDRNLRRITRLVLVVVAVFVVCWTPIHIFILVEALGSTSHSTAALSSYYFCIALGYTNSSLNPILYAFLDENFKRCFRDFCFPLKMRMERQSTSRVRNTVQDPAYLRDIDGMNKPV

Row | Compound | AUC [1] | AUC(0-inf) [1] | MRT last [1] | clearance [1] | Cmax [1] | half-life [1] | Vd [1] | Emax [2] | Emax (human mu opioid receptor [3]) | EC50 (human mu opioid receptor [3]) | Ki [4] | Ki (human mu opioid receptor [5]) | AUC [6] | AUC(0-inf) [6] | MRT last [6] | bioavailability [6] | Cmax [6] | half-life [6] | Tmax [6] | EC50 [2]
1 | COCCOC1C=CC2C3Cc4ccc(OC)c5c4C2(CCN3C)C1O5 (stereo not drawn) [α-6-mPEG1-O-codeine] | 258 ng·h/mL | 262 ng·h/mL | 32.2 min | 64.6 ± 8.75 mL/min/kg | 723 ± 31.2 ng/mL | 42.1 ± 4.84 min | 2.22 ± 0.899 L/kg | 51% | 80% | 8.57 µM | 54.7 µM | 1.82 µM |  |  |  |  |  |  |  | 
2 | COCCOCCOC1C=CC2C3Cc4ccc(OC)c5c4C2(CCN3C)C1O5 (stereo not drawn) [α-6-mPEG2-O-codeine] | 242 ng·h/mL | 243 ng·h/mL | 31.5 min | 69 ± 7.57 mL/min/kg | 685 ± 41 ng/mL | 35.3 ± 2.78 min | 2.25 ± 0.166 L/kg | 59% | 75% | 5.14 µM | 22.6 µM | 1.38 µM | 5.85 ng·h/mL | 6.98 ng·h/mL | 62 min | 0.57% | 3.47 ± 0.606 ng/mL | 97.6 ± 28.4 min | 15 min | 40.1 µM
3 | COCCOCCOCCOCCOCCOC1C=CC2C3Cc4ccc(OC)c5c4C2(CCN3C)C1O5 (stereo not drawn) [α-6-mPEG5-O-codeine] | 192 ng·h/mL | 195 ng·h/mL | 31.8 min | 86.2 ± 7.04 mL/min/kg | 533 ± 38.9 ng/mL | 42.7 ± 3.56 min | 2.95 ± 0.157 L/kg | 60% | 95% |  | 59.1 µM | 2.43 µM | 91.8 ng·h/mL | 98.2 ng·h/mL | 108 min | 10.1% | 48.7 ± 10.8 ng/mL | 125 ± 63.7 min | 15 min | 
